Results from US8802597B2, “Herbicidal pyrimidines” (E I du Pont de Nemours and Company, priority 2003, dated 2014).

Legend:
Test in all cases: Test C postemergence
Format in all cases: in vivo
[1] = system: blackgrass (Alopecurus myosuroides)
Outline: (§1)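 Injury scored visually 12–14 days after application on 0–100 scale (100 = complete control), relative to controls. Compounds, formulated with surfactant in non-phytotoxic solvent, applied to soil at planting (pre) or to 1- to 4-leaf plants 2–18 cm tall (post) in greenhouse.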

[2] = system: green foxtail (Setaria viridis)
Outline: as §1

[3] = system: wheat (Triticum aestivum)
Outline: as §1

[4] = system: Italian ryegrass (Lolium multiflorum)
Outline: as §1

[5] = system: windgrass (Apera spica-venti)
Outline: as §1

[6] = system: winter barley (Hordeum vulgare)
Outline: as §1

[7] = system: downy brome (Bromus tectorum)
Outline: as §1

wild oat (Avena fatua) = system: wild oat (Avena fatua)
Outline: as §1

[8] = system: canarygrass (Phalaris minor)
Outline: as §1

[9] = 125 g ai/ha, scale 0 to 100 (0 no effect, 100 complete control)

CNc1nc(C2CC2)nc(C(=O)OC)c1Cl [Compound 79]
Plant response rating (scale of 0 to 100), Blackgrass ([1]; 16 g ai/ha): 20 | Plant response rating (scale of 0 to 100), Blackgrass ([1]; 31 g ai/ha): 40 | Plant response rating (scale of 0 to 100), Blackgrass ([1]; 62 g ai/ha): 60 | pest or weed control at 125 g/ha ([1]; Alopecurus myosuroides, post-emergence, 125 g ai/ha, scale 0 to 100 (0 no effect, 100 complete control), read-out: Blackgrass plant response rating): 60% | Plant response rating (scale of 0 to 100), Foxtail, Green ([2]; 16 g ai/ha): 20 | Plant response rating (scale of 0 to 100), Foxtail, Green ([2]; 31 g ai/ha): 20 | Plant response rating (scale of 0 to 100), Foxtail, Green ([2]; 62 g ai/ha): 30 | pest or weed control at 125 g/ha ([2]; Setaria viridis, post-emergence, 125 g ai/ha, scale 0 to 100 (0 no effect, 100 complete control), read-out: Foxtail, Green plant response rating): 60% | Plant response rating (scale of 0 to 100), Wheat ([3]; 16 g ai/ha): 0 | Plant response rating (scale of 0 to 100), Wheat ([3]; 31 g ai/ha): 20 | Plant response rating (scale of 0 to 100), Wheat ([3]; 62 g ai/ha): 30 | plant injury at 125 g/ha ([3]; Triticum aestivum, post-emergence, 125 g ai/ha, scale 0 to 100 (0 no effect, 100 complete control), read-out: Wheat plant response rating): 40% | Plant response rating (scale of 0 to 100), Ryegrass, Italian ([4]; 16 g ai/ha): 35 | Plant response rating (scale of 0 to 100), Ryegrass, Italian ([4]; 31 g ai/ha): 35 | Plant response rating (scale of 0 to 100), Ryegrass, Italian ([4]; 62 g ai/ha): 40 | pest or weed control at 125 g/ha ([4]; Lolium multiflorum, post-emergence, 125 g ai/ha, scale 0 to 100 (0 no effect, 100 complete control), read-out: Ryegrass, Italian plant response rating): 45% | Plant response rating (scale of 0 to 100), Windgrass ([5]; 16 g ai/ha): 40 | Plant response rating (scale of 0 to 100), Windgrass ([5]; 31 g ai/ha): 40 | Plant response rating (scale of 0 to 100), Windgrass ([5]; 62 g ai/ha): 45 | pest or weed control at 125 g/ha ([5]; Apera spica-venti, post-emergence, 125 g ai/ha, scale 0 to 100 (0 no effect, 100 complete control), read-out: Windgrass plant response rating): 50% | Plant response rating (scale of 0 to 100), Barley ([6]; 16 g ai/ha): 0 | Plant response rating (scale of 0 to 100), Barley ([6]; 31 g ai/ha): 30 | plant injury at 62 g/ha ([6]; Hordeum vulgare, post-emergence, 62 g ai/ha, scale 0 to 100 (0 no effect, 100 complete control), read-out: Barley plant response rating): 35% | plant injury at 125 g/ha ([6]; Hordeum vulgare, post-emergence, 125 g ai/ha, scale 0 to 100 (0 no effect, 100 complete control), read-out: Barley plant response rating): 35% | Plant response rating (scale of 0 to 100), Bromegrass, Downy ([7]; 16 g ai/ha): 0 | Plant response rating (scale of 0 to 100), Bromegrass, Downy ([7]; 31 g ai/ha): 20 | Plant response rating (scale of 0 to 100), Bromegrass, Downy ([7]; 62 g ai/ha): 30 | pest or weed control at 125 g/ha ([7]; Bromus tectorum, post-emergence, 125 g ai/ha, scale 0 to 100 (0 no effect, 100 complete control), read-out: Bromegrass, Downy plant response rating): 35% | Plant response rating (scale of 0 to 100), Oat, Wild (wild oat (Avena fatua); 16 g ai/ha): 0 | Plant response rating (scale of 0 to 100), Oat, Wild (wild oat (Avena fatua); 31 g ai/ha): 25 | Plant response rating (scale of 0 to 100), Oat, Wild (wild oat (Avena fatua); 62 g ai/ha): 25 | pest or weed control at 125 g/ha (wild oat (Avena fatua); Avena fatua, post-emergence, 125 g ai/ha, scale 0 to 100 (0 no effect, 100 complete control), read-out: Oat, Wild plant response rating): 45% | Plant response rating (scale of 0 to 100), Canarygrass ([8]; 16 g ai/ha): 0 | Plant response rating (scale of 0 to 100), Canarygrass ([8]; 31 g ai/ha): 20 | Plant response rating (scale of 0 to 100), Canarygrass ([8]; 62 g ai/ha): 25 | pest or weed control at 125 g/ha ([8]; Phalaris minor, post-emergence, 125 g ai/ha, scale 0 to 100 (0 no effect, 100 complete control), read-out: Canarygrass plant response rating): 35%

Nc1nc(-c2ccc(Br)cc2)nc(C(=O)O)c1Br [Compound 136]
Plant response rating (scale of 0 to 100), Blackgrass ([1]; 16 g ai/ha): 40 | Plant response rating (scale of 0 to 100), Blackgrass ([1]; 31 g ai/ha): 55 | Plant response rating (scale of 0 to 100), Blackgrass ([1]; 62 g ai/ha): 65 | Blackgrass plant response rating [1, 9]: 65 | Plant response rating (scale of 0 to 100), Foxtail, Green ([2]; 16 g ai/ha): 45 | Plant response rating (scale of 0 to 100), Foxtail, Green ([2]; 31 g ai/ha): 65 | Plant response rating (scale of 0 to 100), Foxtail, Green ([2]; 62 g ai/ha): 70 | Foxtail, Green plant response rating [2, 9]: 70 | Plant response rating (scale of 0 to 100), Wheat ([3]; 16 g ai/ha): 20 | Plant response rating (scale of 0 to 100), Wheat ([3]; 31 g ai/ha): 40 | Plant response rating (scale of 0 to 100), Wheat ([3]; 62 g ai/ha): 45 | Wheat plant response rating [3, 9]: 55 | Plant response rating (scale of 0 to 100), Ryegrass, Italian ([4]; 16 g ai/ha): 45 | Plant response rating (scale of 0 to 100), Ryegrass, Italian ([4]; 31 g ai/ha): 50 | Plant response rating (scale of 0 to 100), Ryegrass, Italian ([4]; 62 g ai/ha): 60 | Ryegrass, Italian plant response rating [4, 9]: 65 | Plant response rating (scale of 0 to 100), Windgrass ([5]; 16 g ai/ha): 45 | Plant response rating (scale of 0 to 100), Windgrass ([5]; 31 g ai/ha): 60 | Plant response rating (scale of 0 to 100), Windgrass ([5]; 62 g ai/ha): 65 | Windgrass plant response rating [5, 9]: 65 | Plant response rating (scale of 0 to 100), Barley ([6]; 16 g ai/ha): 40 | Plant response rating (scale of 0 to 100), Barley ([6]; 31 g ai/ha): 50 | Barley plant response rating ([6]; 62 g ai/ha, scale 0 to 100 (0 no effect, 100 complete control)): 50 | Barley plant response rating [6, 9]: 55 | Plant response rating (scale of 0 to 100), Bromegrass, Downy ([7]; 16 g ai/ha): 30 | Plant response rating (scale of 0 to 100), Bromegrass, Downy ([7]; 62 g ai/ha): 45 | Bromegrass, Downy plant response rating [7, 9]: 55 | Plant response rating (scale of 0 to 100), Oat, Wild (wild oat (Avena fatua); 16 g ai/ha): 40 | Plant response rating (scale of 0 to 100), Oat, Wild (wild oat (Avena fatua); 31 g ai/ha): 45 | Plant response rating (scale of 0 to 100), Oat, Wild (wild oat (Avena fatua); 62 g ai/ha): 55 | Oat, Wild plant response rating (wild oat (Avena fatua); [9]): 60 | Plant response rating (scale of 0 to 100), Canarygrass ([8]; 16 g ai/ha): 40 | Plant response rating (scale of 0 to 100), Canarygrass ([8]; 31 g ai/ha): 45 | Plant response rating (scale of 0 to 100), Canarygrass ([8]; 62 g ai/ha): 55 | Canarygrass plant response rating [8, 9]: 65
